This passage reports IC50 results from patent US9120774B2 (University of Kansas, priority 2009, dated 2015).

Like-named read-outs stand apart in the source and are kept apart here.

What all share (format): cell-based
The subject of experiment [1] is MCF-7 (estrogen receptor positive breast cancer cells). As to the kind of experiment: Anti-proliferation activity against MCF-7 cells (MTS/PMS). Particulars: Homo sapiens, MCF7, n = 3, read-out: IC50 MCF-7. In short, it runs like this: (§1)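 Viability after 72 h compound treatment (1% DMSO final, 37° C., 5% CO2) measured by MTS/PMS; plating density 2000 cells/well with overnight attachment.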

Experiment [2] has as its system PC-3 (androgen independent prostate cancer cells). As to the kind of experiment: Anti-proliferation activity against PC-3 cells. Particulars: Homo sapiens, PC-3, n = 3, read-out: IC50 PC-3. In short, it runs like this: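 Antiproliferative activity was tested in PC-3 androgen-independent prostate cancer cells. Cells grown at 37° C. with 5% CO2 in Advanced DMEM/F12 (1:1) containing non-essential amino acids, 2 mM L-glutamine, streptomycin, penicillin and 10% FBS were plated at 2000/well in 96-well plates. Proliferation was normalized to 1% DMSO controls, and IC50 values from triplicate experiments were fitted in GraphPad Prism.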

For experiment [3], the system named is HCT-116 (colon cancer cells characterized by wild-type p53). Briefly: Anti-proliferation activity against HCT-116 cells. Particulars: Homo sapiens. The protocol:
(§2) Upon completion of synthesis of library of compounds in Examples 23 and 24, the compounds were evaluated for anti-proliferative activity against SkBr3 (Her2 overexpressing breast cancer cells), MCF-7 (estrogen receptor positive breast cancer cells), HCT-116 (colon cancer cells characterized by wild-type p53), PL45 (pancreatic cancer cells), LNCaP (androgen sensitive prostate cancer cells) and PC-3 (androgen independent prostate cancer cells) cell lines. […] The monosubstituted benzamide variants improved activity.

For experiment [4], the system named is SkBr3 (Her2 overexpressing breast cancer cells). Briefly: Anti-proliferation activity against SkBr3 cells (MTS/PMS). Particulars: Homo sapiens, SK-BR-3, n = 3, read-out: IC50 SkBr3. Put shortly:
as §1

Experiment [5] deals with LNCaP (androgen sensitive prostate cancer cells). Briefly: Anti-proliferation activity against LNCaP cells. Particulars: Homo sapiens, LNCaP, n = 3, read-out: IC50 LNCaP. In short, it runs like this:
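Cells seeded at 2000/well in Advanced DMEM/F12 with 10% FBS and attached overnight, then given compound in 1% DMSO final for 72 h at 37 °C, 5% CO2. Viable cells by MTS/PMS read-out, normalised to 1% DMSO as 100% proliferation. IC50 from separate triplicate experiments.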

Experiment [6] concerns PL45 (pancreatic cancer cells). As to the kind of experiment: Anti-proliferation activity against PL45 cells. The protocol: as §2
Setting [7] is: Table 5, heterocyclic analogues.
The mark [8] stands for this setting: Table 5, heterocyclic analogues, n = 3.

Consider `CO[C@@H]1[C@@H](O)[C@@H](O)[C@H](Oc2ccc3cc(NC(=O)c4ccccc4)c(=O)oc3c2C)OC1(C)C` [compound 8, N-(7-((2R,3R,4S,5R)-3,4-Dihydroxy-5-methoxy-6,6-dimethyltetrahydro-2H-pyran-2-yloxy)-8-methyl-2-oxo-2H-chromen-3-yl)benzamide], for which the half-maximal inhibitory concentration (IC50) (commonly the concentration needed to halve the response being measured) was determined as 20.6 ± 0.4 µM in experiment [1] (Table 2); 67.6 ± 9.7 µM in experiment [2] (Table 2); 13 ± 2.1 µM in experiment [3] (Table 2, n = 3); 21.5 ± 1.4 µM in experiment [4] (Table 2); 72 ± 4 µM in experiment [5] (Table 2); 3.4 ± 0.6 µM in experiment [6] (Table 2, n = 3).
With `COc1ccc(C(=O)Nc2cc3ccc(O[C@@H]4OC(C)(C)[C@H](OC)[C@@H](O)[C@H]4O)c(C)c3oc2=O)cc1` [compound 11, N-(7-((2R,3R,4S,5R)-3,4-Dihydroxy-5-methoxy-6,6-dimethyltetrahydro-2H-pyran-2-yloxy)-8-methyl-2-oxo-2H-chromen-3-yl)-4-methoxybenzamide], the concentration for half-maximal inhibition (IC50) in experiment [1] (Table 2) is 10.3 ± 0.9 µM; in experiment [2] (Table 2), 17.1 ± 4.3 µM; in experiment [3] (Table 2, n = 3), 15.9 ± 1.9 µM; in experiment [4] (Table 2), 15.6 ± 4.2 µM; in experiment [5] (Table 2), 7.3 ± 0.9 µM; in experiment [6] (Table 2, n = 3) it was 5.9 ± 2.1 µM.
As for `CO[C@@H]1[C@@H](O)[C@@H](O)[C@H](Oc2ccc3cc(NC(=O)c4ccccc4-c4ccccc4)c(=O)oc3c2C)OC1(C)C` [compound 12, N-(7-((2R,3R,4S,5R)-3,4-Dihydroxy-5-methoxy-6,6-dimethyltetrahydro-2H-pyran-2-yloxy)-8-methyl-2-oxo-2H-chromen-3-yl)biphenyl-2-carboxamide], the IC50 was 18.9 ± 7 µM in experiment [1] (Table 2); 65.3 ± 5.6 µM in experiment [2] (Table 2); 32.7 ± 1.6 µM in experiment [3] (Table 2, n = 3); 39.1 ± 4.1 µM in experiment [4] (Table 2); 17.3 ± 5.2 µM in experiment [5] (Table 2); 14.4 ± 2.4 µM in experiment [6] (Table 2, n = 3).
For the compound `CO[C@@H]1[C@@H](O)[C@@H](O)[C@H](Oc2ccc3cc(NC(=O)c4cccc(-c5ccccc5)c4)c(=O)oc3c2C)OC1(C)C` [compound 13, N-(7-((2R,3R,4S,5R)-3,4-Dihydroxy-5-methoxy-6,6-dimethyltetrahydro-2H-pyran-2-yloxy)-8-methyl-2-oxo-2H-chromen-3-yl)biphenyl-3-carboxamide], the half-inhibitory concentration (IC50) came to 18 ± 3.8 µM in experiment [1] (Table 2); 11.6 ± 1.4 µM in experiment [2] (Table 2); 12.8 ± 2.3 µM in experiment [3] (Table 2, n = 3); 13 ± 1.4 µM in experiment [4] (Table 2); 1.6 ± 0.5 µM in experiment [5] (Table 2); 1.6 ± 0.2 µM in experiment [6] (Table 2, n = 3).
Regarding `CO[C@@H]1[C@@H](O)[C@@H](O)[C@H](Oc2ccc3cc(NC(=O)c4ccc(-c5ccccc5)cc4)c(=O)oc3c2C)OC1(C)C` [compound 14, N-(7-((2R,3R,4S,5R)-3,4-Dihydroxy-5-methoxy-6,6-dimethyltetrahydro-2H-pyran-2-yloxy)-8-methyl-2-oxo-2H-chromen-3-yl)biphenyl-4-carboxamide], the 50% inhibitory concentration (IC50) was 8.1 ± 6 µM in experiment [1] (Table 2); 19.3 ± 5.1 µM in experiment [2] (Table 2); 3.6 ± 2 µM in experiment [3] (Table 2, n = 3); 16.3 ± 1.6 µM in experiment [4] (Table 2); 44.9 ± 31.6 µM in experiment [5] (Table 2); 1.6 ± 0.2 µM in experiment [6] (Table 2, n = 3).
Consider `CO[C@@H]1[C@@H](O)[C@@H](O)[C@H](Oc2ccc3cc(NC(=O)c4ccc([N+](=O)[O-])cc4)c(=O)oc3c2C)OC1(C)C` [compound 17, N-(7-((2R,3R,4S,5R)-3,4-Dihydroxy-5-methoxy-6,6-dimethyltetrahydro-2H-pyran-2-yloxy)-8-methyl-2-oxo-2H-chromen-3-yl)-4-nitrobenzamide], for which the half-maximal inhibitory concentration (IC50) was over 100 µM in experiment [1] (Table 2); over 100 µM in experiment [2] (Table 2); over 100 µM in experiment [3] (Table 2, n = 3); over 100 µM in experiment [4] (Table 2); 69.3 ± 4.1 µM in experiment [5] (Table 2); over 100 µM in experiment [6] (Table 2, n = 3).
Turning to `CO[C@@H]1[C@@H](O)[C@@H](O)[C@H](Oc2ccc3cc(NC(=O)c4ccccc4N)c(=O)oc3c2C)OC1(C)C` [compound 18, 2-Amino-N-(7-((2R,3R,4S,5R)-3,4-dihydroxy-5-methoxy-6,6-dimethyltetrahydro-2H-pyran-2-yloxy)-8-methyl-2-oxo-2H-chromen-3-yl)benzamide], the IC50 in experiment [1] (Table 2) stood at 17.2 ± 3.3 µM; in experiment [2] (Table 2), 57.9 ± 10.1 µM; in experiment [3] (Table 2, n = 3), 14.4 ± 0.8 µM; in experiment [4] (Table 2), 17.7 ± 1.4 µM; in experiment [5] (Table 2) it was 12.7 ± 0.8 µM; in experiment [6] (Table 2, n = 3) it was 6.2 ± 1.3 µM.
For the compound `CO[C@@H]1[C@@H](O)[C@@H](O)[C@H](Oc2ccc3cc(NC(=O)c4ccc(N)cc4)c(=O)oc3c2C)OC1(C)C` [compound 20, 4-Amino-N-(7-((2R,3R,4S,5R)-3,4-dihydroxy-5-methoxy-6,6-dimethyltetrahydro-2H-pyran-2-yloxy)-8-methyl-2-oxo-2H-chromen-3-yl)benzamide], the IC50 in experiment [1] (Table 2) is 14 ± 0.5 µM; in experiment [2] (Table 2), 65.2 ± 2.8 µM; in experiment [3] (Table 2, n = 3), 24.4 ± 5.8 µM; in experiment [4] (Table 2) it was 33.1 ± 1.1 µM; in experiment [5] (Table 2) it was 26.4 ± 15.8 µM; in experiment [6] (Table 2, n = 3) it was 8.4 ± 0.3 µM.
Regarding `CO[C@@H]1[C@@H](O)[C@@H](O)[C@H](Oc2ccc3cc(NS(=O)(=O)c4ccccc4)c(=O)oc3c2C)OC1(C)C` [compound 21, N-(7-((2R,3R,4S,5R)-3,4-Dihydroxy-5-methoxy-6,6-dimethyltetrahydro-2H-pyran-2-yloxy)-8-methyl-2-oxo-2H-chromen-3-yl)benzenesulfonamide], the IC50 is over 100 µM in experiment [1] (Table 3); over 100 µM in experiment [2] (Table 3); over 100 µM in experiment [3] (Table 3, n = 3); over 100 µM in experiment [4] (Table 3); over 100 µM in experiment [5] (Table 3); over 100 µM in experiment [6] (Table 3, n = 3).
`CO[C@@H]1[C@@H](O)[C@@H](O)[C@H](Oc2ccc3cc(NC(=O)Cc4ccccc4)c(=O)oc3c2C)OC1(C)C` [compound 22, N-(7-((2R,3R,4S,5R)-3,4-Dihydroxy-5-methoxy-6,6-dimethyltetrahydro-2H-pyran-2-yloxy)-8-methyl-2-oxo-2H-chromen-3-yl)-2-phenylacetamide]: the half-maximal inhibitory concentration (IC50) is 16.4 ± 0.4 µM in experiment [1] (Table 3); 43.3 ± 13.4 µM in experiment [2] (Table 3); 13.2 ± 0.6 µM in experiment [3] (Table 3, n = 3); 21.4 ± 2.2 µM in experiment [4] (Table 3); 10.4 ± 0.2 µM in experiment [5] (Table 3); 8.5 ± 1.7 µM in experiment [6] (Table 3, n = 3).
`CO[C@@H]1[C@@H](O)[C@@H](O)[C@H](Oc2ccc3cc(NC(=O)CCc4ccccc4)c(=O)oc3c2C)OC1(C)C` [compound 23, N-(7-((2R,3R,4S,5R)-3,4-Dihydroxy-5-methoxy-6,6-dimethyltetrahydro-2H-pyran-2-yloxy)-8-methyl-2-oxo-2H-chromen-3-yl)-3-phenylpropanamide]: the IC50 in experiment [1] (Table 3) stood at 6.9 ± 0.3 µM; in experiment [2] (Table 3), 22 ± 5.8 µM; in experiment [3] (Table 3, n = 3) it was 5.4 ± 0.6 µM; in experiment [4] (Table 3) it was 10.2 ± 2.3 µM; in experiment [5] (Table 3), 92.8 ± 0.9 µM; in experiment [6] (Table 3, n = 3) it was 9.8 ± 0.2 µM.
Turning to `CO[C@@H]1[C@@H](O)[C@@H](O)[C@H](Oc2ccc3cc(NC(=O)c4cc5ccccc5o4)c(=O)oc3c2C)OC1(C)C` [compound 43, N-(7-((2R,3R,4S,5R)-3,4-Dihydroxy-5-methoxy-6,6-dimethyltetrahydro-2H-pyran-2-yloxy)-8-methyl-2-oxo-2H-chromen-3-yl)benzofuran-2-carboxamide], the IC50 worked out at 28.6 ± 4.1 µM in experiment [1] (setting [7]); 18.8 ± 4.4 µM in experiment [2] (setting [7]); 9.6 ± 0.3 µM in experiment [3] (setting [8]); 7.9 ± 1.1 µM in experiment [5] (setting [7]); 3.8 ± 0.4 µM in experiment [6] (setting [8]).
Taken in the same sequence, the figures for `CO[C@@H]1[C@@H](O)[C@@H](O)[C@H](Oc2ccc3cc(NC(=O)c4cc5ccccc5s4)c(=O)oc3c2C)OC1(C)C` [compound 44, N-(7-((2R,3R,4S,5R)-3,4-Dihydroxy-5-methoxy-6,6-dimethyltetrahydro-2H-pyran-2-yloxy)-8-methyl-2-oxo-2H-chromen-3-yl)benzo[b]thiophene-2-carboxamide] were 96.3 ± 3.7 µM, 7.4 ± 2.1 µM, 78.9 ± 3.5 µM, over 100 µM and 33.2 ± 0.7 µM.
